According to patent publication US20230405002A1, “COMBINATIONS OF DIACYLGLYCEROL ACYLTRANSFERASE 2 INHIBITORS AND ACETYL-COA CARBOXYLASE INHIBITOR” (Pfizer Inc., priority 2020, published 2023):

Assays:
[1] = tested on: CDAHFD fed male Wistar-Han rats; assay: CDAHFD rat study: liver histology (αSMA IHC, Picrosirius red, Iba1 staining); type: in vivo; details: Compound A 5 mg/kg, Compound D 30 mg/kg twice daily, 6 weeks
Text: (§1) Standard laboratory conditions were used to house 60 rats (˜200 g); they were double housed and kept under 12:12-hour reverse light-dark schedule (lights off at 8:00 AM). Rats were fed choline deficient and high fat diet (CDAHFD) beginning 6-weeks prior to initiation of the study. […] Animals (n=12) remaining on normal chow throughout the study and administered twice-daily vehicle were used as a control group. Blood samples were collected prior to starting compound administration and 3- and 6-week post compound administration for the assessment of circulating markers. Shearwave elastography (Aixplorer Ultimate imager, Supersoinc imagine) measurements were made at Week −3, Week 0 (prior to 1st dose), Week 3 and Week 6 to assess inflammation and fibrosis progression over time. Histology was assessed following 6-weeks of drug administration which corresponded to 12 weeks on the CDAHFD. Results are provided as an average of animals per each dosing group.
Following the 12-weeks on CDAHFD, the animals were sacrificed by CO2 asphyxiation. The right lateral, medial and left lateral lobes of the liver were harvested. Sections were taken from the left lateral, right medial and right lateral lobes and fixed in formalin and processed to paraffin blocks per animal. One section of left lateral lobe per animal was cryopreserved in optimal cutting temperature (OCT) compound. The remainder of the liver from each animal was frozen and rapidly pulverized on an aluminum block cooled in liquid N2, ensuring the tissue remained frozen throughout the pulverization. The pulverized tissue was transferred and stored at −80° C. until analysis. A portion of the pulverized liver sample from each animal was processed and analyzed for gene expression markers of fibrogenesis. Rat taqman probes against αSMA and COL1A1 were all assessed using Actb as housekeeping gene on qPCR.
The following endpoints were evaluated by qualitative histologic evaluation by a board certified veterinary pathologist and quantitative histomorphometry: hepatic stellate cell activation and differentiation into myofibroblasts by αSMA immunohistochemistry (IHC); Collagen as a correlate of fibrosis by Picrosirius Red stain. Images were analyzed using Visiopharm software. Visiopharm applications with threshold parameters were applied uniformly to identify tissue sections and to quantify the targets on each IHC (DAB (3,3′-diaminobenzidine) positive) or histochemically stained slides as percent area: stain area of interest/Total tissue ROI−whitespace)×100%. Non-parametric statistics were used to analyze data from this study. Group values were reported as mean+/− the standard error of the mean.

αSMA and COL1A1 = assay: CDAHFD rat study: hepatic αSMA and COL1A1 gene expression (qPCR); type: in vivo; details: Compound A 5 mg/kg, Compound D 30 mg/kg twice daily, 6 weeks
Text: as §1
Following the 12-weeks on CDAHFD, the animals were sacrificed by CO2 asphyxiation. The right lateral, medial and left lateral lobes of the liver were harvested. […] A portion of the pulverized liver sample from each animal was processed and analyzed for gene expression markers of fibrogenesis. Rat taqman probes against αSMA and COL1A1 were all assessed using Actb as housekeeping gene on qPCR.

SREBP-1 = assay: Compound A / Compound D study in Western diet fed rats: nuclear SREBP-1 localization (Western blot); type: in vivo, rat; details: high dose; relative to vehicle treated Western diet fed rats
Experimental: A randomized, vehicle-controlled, 8-parallel arm study was conducted in male Sprague-Dawley rats (Charles River (Boston, MA)) to obtain circulating and hepatic TG levels. Standard laboratory conditions were used to house 96 rats (˜200 g); they were double housed and kept under 12:12-hour reverse light-dark schedule (lights off at 8:00 AM). Rats were randomized into chow or Western diet groups and dose groups upon arrival and were given a 14-day lead-in period on either standard rat chow or Western diet prior to the start of the study. Standard Laboratory Rodent chow diet, 5053, was from LabDiet (PMI, St Louis, Missouri). Western Diet, D12079Bi, was from Research Diets (New Brunswick, NJ).
Nuclear and Membrane fractions were prepared by ultracentrifugation using standard methods from a portion of the pulverized liver samples, that were pooled per treatment group. Samples from the nuclear extract and the membrane fractions were analyzed by Western blotting for SREBP1. Western blots for Calnexin was used as a marker for the membrane fraction, actin as a marker for total sample loading, and Histone 2B as a marker for the nuclear fraction. Nuclear SREBP1 levels were quantified using relative units and normalized to Histone 2B to control for sample loss during the nuclear fractionation and gel loading.

| Compound | reduction of Iba1 staining [1] | reduction of Picosrius red (PSR) staining [1] [%] | reduction of αSMA staining [1] [%] | hepatic αSMA and COL1A1 gene expression (αSMA and COL1A1) | nuclear SREBP-1 localization (SREBP-1) |
| --- | --- | --- | --- | --- | --- |
| COc1cc(C(=O)N2CCC3(CC2)CC(=O)c2c(cnn2C(C)C)C3)cc(-c2ccc(C(=O)O)cc2)n1 [Compound A, 4-(4-(1-isopropyl-7-oxo-1,4,6,7-tetrahydrospiro[indazole-5,4′-piperidine]-1′-carbonyl)-6-methoxypyridin-2-yl)benzoic acid] | 15% | 26 | 41 | reduced hepatic αSMA and COL1A1 gene expression | increased nuclear localization of SREBP-1 |
| CCOc1cccnc1Oc1cncc(-c2ncc(C(=O)N[C@H]3CCOC3)cn2)c1 [Compound D, (S)-2-(5-((3-ethoxypyridin-2-yl)oxy)pyridin-3-yl)-N-(tetrahydrofuran-3-yl)pyrimidine-5-carboxamide] | did not alter Iba1 staining | 20 | 23 | reduced hepatic αSMA and COL1A1 gene expression | reduced SREBP-1 nuclear localization |
